Among the data in PubChem BioAssay (NCI) are GI50 and TGI values, retold here.

“And” between values parts separate entries of the source, which are not always exact repeats. Equal values may be shown once.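 Dose response: 5 concentrations. Exposure: 48 h. Format: 96-well plates. Endpoint: linear interpolation; highest concentration if not reached. GI50 is the concentration that inhibits growth by half. At the TGI there is no net growth.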

This test has as its system MDA-MB-468 breast. As to the kind of experiment: NCI anticancer screen, dose series, 48 h.
Turning to `COc1ccc2c(O)c(/C=C3\N=Nc4ncccc43)oc2c1C[C@@H]1CCNC[C@H]1F`, the GI50 is 308 nM and the TGI worked out at 1430 nM.
The matching figures for `NCCCNc1nc2ccccc2c2c(=O)c3cccc(Cl)c3sc12`: 837 nM and 2250 nM.
The matching figures for `O=C(Nc1cc(F)c(F)cc1C(=O)O)c1ccc(-n2ccnc2)nn1`: greater than 100000 nM and greater than 100000 nM.
The corresponding values for `CCCCCCCCCCNCCSS(=O)(=O)O` are 2450 nM and 6280 nM.
Regarding `Cc1ccc(Cl)c(NS(=O)(=O)c2ccc(-c3cnc(C4CC4)o3)cc2)c1`, the GI50 was 45.2 nM and the TGI was 7110 nM.
The corresponding values for `Cn1cc(C2=C(c3cn(CCCN)c4ccccc34)C(=O)NC2=O)c2ccccc21` are 3700 nM and 7940 nM.
The matching figures for `CN(C)Cc1ccc(NC(=O)c2cncc(C#Cc3cnc(N)c4ncccc34)c2)cc1F`: 7720 nM and 25700 nM.
The matching figures for `Cc1nc2sc3c(N)ncnc3c2c(C)c1C`: greater than 25000 nM and greater than 25000 nM.
`CC[C@H](C)[C@H](NC(=O)[C@H]1CCCCN1C)C(=O)N(C)[C@H](C[C@@H](OC(C)=O)c1cccc(C(=O)N[C@@H](Cc2ccccc2)C[C@H](C)C(=O)O)n1)C(C)C`: the GI50 is 0.353 nM and 2.5 nM.
Turning to `N=C(N)c1ccc(-c2ccc(-c3ccc4ccccc4c3)s2)s1`, the GI50 is 2380 nM and the TGI came to 5200 nM.
The corresponding values for `Clc1cccc(CNc2c3ccccc3nc3ccccc23)c1` are 1280 nM and 3130 nM.
The corresponding values for `COc1ccc(S(=O)(=O)Nc2c(/C=C\c3cc(OC)c(OC)c(OC)c3)ccc(OC)c2O)cc1` are 43.9 nM and 17600 nM.
The matching figures for `N#Cc1nc(C#N)c(Sc2ccccc2)c(Sc2ccccc2)c1Sc1ccccc1`: 1910 nM and 5800 nM.
`CCN(CC)c1ccc(-c2cc(-c3cc(OC)c(OC)c(OC)c3)nc(N3CCC(O)CC3)c2C#N)cc1`: the GI50 was 987 nM and the TGI amounted to 3210 nM.
On to `c1ccc(Oc2ccc(Nc3ncc(-c4ccccc4)o3)cc2)cc1`, for which the GI50 is greater than 25000 nM and the TGI was greater than 25000 nM.
Turning to `O=C1Cc2cc(CCn3cncn3)c(Cl)cc2N1`, the GI50 was 2180 nM and the TGI is 9540 nM.
The matching figures for `C=C1C(=O)O[C@H]2[C@H]1CC/C(COC(=O)/C=C\C(=O)NCc1ccc(Cn3c(=O)sn(CCI)c3=O)cc1)=C\CC[C@@]1(C)O[C@@H]21`: 2390 nM and 5850 nM.
The corresponding values for `Fc1ccc(-c2nn3ccccc3c2-c2ccncc2)cc1` are 11000 nM and greater than 25000 nM.
Consider `Oc1[nH]c2ccccc2c1/C=c1/ccc2c(c1)N=C(c1ccc(C(F)(F)F)cc1)N=2`, for which the GI50 was 2390 nM and the TGI was 14700 nM.
With `COc1ccc(C(=O)c2cc3c(N)c(C(=O)Nc4cccc(Br)c4C)sc3nc2C)cc1`, the GI50 was 40.4 nM.
For `Nc1ncc(-c2ccc3ncnc(N4CCc5ccc(Cl)cc54)c3c2)cc1C(F)(F)F`, the GI50 is 299 nM and the TGI turned out to be 2680 nM.
The corresponding values for `COc1ccccc1[As]=[As]c1ccccc1OC` (configuration not stated) are 19.9 nM and 47.4 nM.
The matching figures for `CCN(CC)CCN1c2nc3ccccc3cc2Sc2cc3ccccc3nc21`: 1790 nM and 5330 nM.
The matching figures for `C#C[C@@]1(O)[C@@H](CO)O[C@@H](n2cc(C(F)(F)F)c3c(N)ncnc32)[C@@H]1O`: 280 nM and 1900 nM.
On to `COc1ccc(C2C(C#N)=C(N)Oc3c2sc2c(Br)cccc32)cc1` (configuration not stated), for which the GI50 is 1860 nM and the TGI was 5550 nM.
Turning to `CS(=O)(=O)c1cccc(Nc2ncc3cc(-c4ccccc4Cl)ccc3n2)c1`, the GI50 was 2070 nM and the TGI was determined as 19600 nM.
The corresponding values for `O=C(/C=C/c1ccccn1)c1ccc(OCc2nnc(-c3ccc(Cl)cc3)o2)cc1` are 1710 nM and 3560 nM.
Turning to `COc1cc(-c2nc3ccccc3o2)cc(CN2CCCCC2)c1O`, the GI50 is 3240 nM and the TGI came out at 22800 nM.
The matching figures for `O=C1Nc2ccccc2/C1=C\c1nc(-c2ccccc2F)n2ccccc12`: 1540 nM and 5510 nM.
The matching figures for `Nc1cc(F)ccc1NC(=O)c1ccc(NC(=O)C/C=C/c2cccnc2)cn1`: 911 nM and 2500 nM.
The corresponding values for `CCOc1ccc(C(C[N+](=O)[O-])Sc2ccccc2N)cc1` (configuration not stated) are 2110 nM and 4790 nM.
As to `Clc1ccc2c(c1)N(C1CCCN(Cc3ccccc3)C1)c1ccccc1S2` (configuration not stated), the GI50 was 2690 nM and the TGI is 9510 nM.
The matching figures for `c1ccc(-c2n(Cc3ccc4ccccc4c3)c3ccccc3[n+]2Cc2ccc3ccccc3c2)cc1`: 134 nM and 703 nM.
Regarding `O=C(NCCOCCOCCOCCNC(=O)c1cc2c(o1)C(=O)c1ccccc1C2=O)NC12CC3CC(CC(C3)C1)C2`, the GI50 was 1080 nM and the TGI was 4370 nM.
The matching figures for `CNC(=O)c1c(F)cccc1Nc1nc(Nc2cc3c(cc2OC)CCN3C(=O)CN(C)C)nc2[nH]ccc12`: 2340 nM and 8850 nM.
`COc1cc2ncnc(Nc3ccc(Oc4ccnc(C)c4)c(C)c3)c2cc1NC(=O)CC1CCSS1` (configuration not stated): the GI50 is 784 nM and the TGI came to 1730 nM.
The matching figures for `CCCCOc1ccc(/C=N/Nc2cc(C)nc3ccc(Br)cc23)cc1`: 1670 nM and 3220 nM.
The corresponding values for `Cn1c(=O)c(Oc2ccc(F)cc2F)cc2cnc(N[C@@H]3CCOC3)nc21` are greater than 25000 nM and greater than 25000 nM.
The matching figures for `C=CCNC1=C2C[C@@H](C)C[C@H](OC)[C@H](O)[C@@H](C)/C=C(\C)[C@H](OC(N)=O)[C@@H](OC)/C=C\C=C(/C)C(=O)NC(=CC1=O)C2=O`: 209 nM and 1830 nM.
On to `COc1ccc(-c2cc(-c3ccc(Cl)cc3)nc(NCCCCNc3ccnc4cc(Cl)ccc34)n2)cc1`, for which the GI50 was 1720 nM and the TGI came out at 4300 nM.
The corresponding values for `CCC(=O)N1C/C(=C/c2ccc(Br)cc2)C(=O)/C(=C/c2ccc(Br)cc2)C1` are 371 nM and 1230 nM.
As to `CCN1C(=O)N(CC)C2C1NN=c1s/c(=C3\C(=O)N(C4CCCC4)c4ccccc43)c(=O)n12` (configuration not stated), the GI50 was 325 nM and the TGI amounted to 2450 nM.
